In patent US20230382863A1, “MEK INHIBITORS AND USES THEREOF” (Ikena Oncology, Inc., priority 2022, published 2023):

Legend:
[1] = system: Phosphorylation of ERK1/2 in AsPC1 cells; assay: 4 hour pERK1/2 HTRF Assay; format: cell-based; settings: Homo sapiens, ASPC1, read-out: pERK AsPC-1 HTRF (4 hour): Average IC50 (nM); AsPC-1, 4 hour
Protocol: AsPC1 cells were seeded at 20,000 cells/well overnight in 96-well plates, then treated with a 12-point dose response of compounds (Starting dose of 3000 nM and 3-fold dilution) for 4 hours. AsPC1 cells are a K-Ras mutant cell line. Phosphorylation of ERK1/2 on residues Thr202 and Tyr204 were detected using a Homogenous Time-Resolved Fluorescence (HTRF) assay (Cisbio Cat #64ERKPEG). Briefly, ERK phosphorylation was detected using a sandwich assay format using two phospho-ERK specific antibodies, one labelled with EU^3+-Cryptate (donor) and the second with d2 (acceptor). The Fluorescence Resonance Energy Transfer (FRET) towards the d2 acceptor was detected at a wavelength of 665 nm. ERK1/2 phosphorylation levels were normalized to total ERK1/2 protein levels in each well. IC50 values were determined by fitting a variable slope, four parameters curve to the compound concentration to normalized Phospho-ERK1/2 relationship.

[2] = Cassette pharmacokinetics studies in mice; format: in vivo; settings: male, Balb/c, plasma; Mouse, PO, 5 mg/kg
Protocol: Pharmacokinetics studies were conducted using cassette dosing protocols, with test compounds administered per mouse. Treatment groups were 3 mice (˜6-8 weeks old, ˜20-30 g Balb/c male mice) per route of administration. Compounds were formulated in 5% DMSO and 95% PEG400 with final concentrations of 0.5 mg/mL for IV and PO dosing. Compounds were dosed at 2 mg/kg for IV dosing and 5 mg/kg for PO dosing. Blood samples were withdrawn at 0.083, 0.25, 0.5, 1.0, 2.0, 4.0, 6.0, 8.0, and 24 hours following IV dosing, and 0.25, 0.5, 1.0, 2.0, 4.0, 6.0, 8.0, and 24 hours following PO dosing. Blood samples were centrifuged at 4,000 g for 5 minutes at 4° C. to obtain plasma samples. Plasma samples were diluted with acetonitrile containing internal standard, vortexed for 30 seconds, then centrifuged at 4,000 rpm for 15 minutes at 4° C. The supernatant was diluted with water, and compound concentration was determined by HPLC/MS/MS compared to calibration standards of 0.5-1,000 ng/mL.
Where route is listed as “IV*”, the compound was dosed IV at 1 mg/kg.

[3] = molecular target: MEK1-CRAF complex (Homo sapiens (Human), UniProt Q02750); assay: Stabilization of MEK1-CRAF complex assay (AlphaLISA); format: binding
Sequence of MEK1-CRAF complex (Q02750 whole entry, looked up): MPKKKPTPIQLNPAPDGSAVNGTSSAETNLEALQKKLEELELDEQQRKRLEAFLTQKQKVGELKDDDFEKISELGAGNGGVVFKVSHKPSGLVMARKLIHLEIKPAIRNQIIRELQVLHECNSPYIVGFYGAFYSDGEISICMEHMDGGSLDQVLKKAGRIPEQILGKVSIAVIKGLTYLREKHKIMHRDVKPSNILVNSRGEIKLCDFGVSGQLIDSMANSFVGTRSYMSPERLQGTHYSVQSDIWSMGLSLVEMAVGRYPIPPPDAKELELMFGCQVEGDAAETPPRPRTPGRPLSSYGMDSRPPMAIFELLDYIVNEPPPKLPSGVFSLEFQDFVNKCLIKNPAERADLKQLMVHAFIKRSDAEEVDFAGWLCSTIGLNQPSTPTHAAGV
Sequence of MEK1-CRAF complex (P04049 whole entry partner, looked up): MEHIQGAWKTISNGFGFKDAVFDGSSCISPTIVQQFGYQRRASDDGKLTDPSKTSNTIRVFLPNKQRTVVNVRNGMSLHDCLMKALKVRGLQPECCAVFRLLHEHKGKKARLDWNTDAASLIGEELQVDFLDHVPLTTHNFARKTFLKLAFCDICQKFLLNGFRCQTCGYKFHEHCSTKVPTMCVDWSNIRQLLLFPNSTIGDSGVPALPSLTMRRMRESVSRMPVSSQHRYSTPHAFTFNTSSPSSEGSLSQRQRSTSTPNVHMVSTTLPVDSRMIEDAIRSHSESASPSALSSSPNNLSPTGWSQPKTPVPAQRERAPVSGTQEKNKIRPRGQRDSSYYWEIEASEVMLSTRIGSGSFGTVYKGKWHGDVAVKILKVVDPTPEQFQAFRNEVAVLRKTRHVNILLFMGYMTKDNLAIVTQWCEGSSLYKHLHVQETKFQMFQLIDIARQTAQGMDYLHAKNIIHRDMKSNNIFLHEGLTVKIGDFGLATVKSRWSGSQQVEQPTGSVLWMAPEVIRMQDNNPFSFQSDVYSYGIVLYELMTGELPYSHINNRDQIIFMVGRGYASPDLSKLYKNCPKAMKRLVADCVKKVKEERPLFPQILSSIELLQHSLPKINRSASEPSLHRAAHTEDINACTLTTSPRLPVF
Protocol: MEK1 was diluted to 4 nM, and nickel chelate donor beads and glutathione acceptor beads were diluted to 80 μg/mL. CRAF was diluted to a top concentration of 160 nM, which was subsequently diluted to 80, 40, 20, 10, 5, 2.5, 1.25, and 0.625 nM through 1:2 serial dilution.
Exemplary MEK inhibitor compounds (0, 0.01, 0.1, or 1 μM) were added to a 384-AlphaPlate (PerkinElmer, 6008350) by a digital liquid dispenser (Tecan D300e) based on a total volume of 20 μL reaction mixture.
5 μL 4×MEK1 stock solution was added to wells A1-P20 by multichannel pipettes. The plate was sealed with clear olefin sealing tape (Thermo Scientific, 232701), centrifuged at 1000 rpm for 1 minute, and incubated at room temperature for 30 minutes.
5 μL 4×CRAF stock solution at different concentrations or 5 μL or 10 μL AlphaLISA buffer was added by multichannel pipettes. The plate was sealed, centrifuged at 1000 rpm for 1 minute, and incubated at room temperature for 60 minutes.
5 μL 4×glutathione acceptor beads were first added to all wells by multichannel pipettes. The ambient light was subsequently adjusted to <100 lux (light meter) before adding 5 μL 4×nickel chelate donor beads to the same wells. From this step on, the plate was covered with a black plate cover, centrifuged at 1000 rpm for 1 minute, and incubated at room temperature for 60 minutes.
Data were collected on a PHERAStar FSX (BMG LABTECH) using the AlphaLISA module (excitation: 680 nm, emission: 615 nm), with a gain of 3600. The excitation time was 0.30 seconds, and data collection started after a 0.04-second delay for a total integration time of 0.60 seconds.
The individual AlphaLISA counts of wells with exemplary MEK inhibitor compound were divided by the average AlphaLISA counts of wells without compound to obtain AlphaLISA signal/background ratio (S/B). The dissociation constant (KD) of MEK1-CRAF was calculated using nonlinear regression curve fit in GraphPad PRISM® 9.0 software.

[4] = molecular target: uMEK/BRAF (Homo sapiens (Human), UniProt Q02750); assay: MEK-RAF Binding Assay (uMEK/BRAF HTRF)
Sequence of uMEK/BRAF (Q02750 whole entry): as the sequence (Q02750 whole entry, looked up) above

[5] = Pharmacokinetics in rat; format: in vivo; settings: plasma, IV, 1 mg/kg; for Vd: read-out: Vdss
[6] = system: cancer cell lines; assay: In vitro MEK inhibitor drug combinations (Cell Titer Glo, Loewe synergy); format: cell-based; settings: combination with I-2, 5 days
Protocol: Cell viability was determined by Cell Titer Glo assay. […] A normalized Loewe sum of synergy score of >10 was considered synergistic, <10, but >−10 additive, and <−10 antagonistic.

[7] = system: SKM-1 xenograft (KRAS K117N); assay: In vivo efficacy, SKM-1 xenograft model; design: species or system mouse; settings: SKM-1 model, 100 mg/kg QD, Day 22
Protocol: (§1) The antitumor activity of exemplary MEK inhibitor compounds is evaluated in vivo using human cell line derived xenografts (CDX) grown in immunodeficient mice. For these studies, AsPC1 (pancreatic cell line with KRAS G12D mutation), NCI-H2122 (lung cell line with KRAS G12C mutation), and 5637 (bladder cell line with CRAF amplification) models are used. In addition, HCT-116 (colorectal cell line with KRAS G13D mutation), SKM-1 (AML cell line with KRAS K117N mutation), and OCI-AML-3 (AML cell line with NRAS Q61L mutation) models are used. The tumor cell lines (AsPC-1, NCI-H2122, 5637, and HCT-116 cells) are maintained in vitro as monolayer culture in medium at 37° C. in an atmosphere of 5% CO2 in air. The tumor cell lines (SKM-1 and OCI-AML-3 cells) are maintained in vitro as a suspension in medium at 37° C. in an atmosphere of 5% CO2 in air. The tumor cells are routinely sub-cultured before confluence by trypsin-EDTA treatment, not to exceed 4-5 passages. The cells growing in an exponential growth phase are harvested for tumor inoculation. AsPC1, NCI-H2122, and OCI-AML-3 tumors are implanted into Balb/c nude mice. HCT-116 tumors are implanted into Nu/Nu mice. 5637 and SKM-1 tumors are implanted into NOG mice. Each mouse is inoculated subcutaneously on the right flank with tumor cells in a 1:1 mixture with matrigel. Tumors are allowed to grow to approximately 150-200 mm^3. At this time, mice are assigned to groups such that the mean tumor volume is the same for each treatment group. The MEK inhibitor compound treatments are administrated to the tumor-bearing mice via oral gavage. Throughout the study, mouse body weight and tumor volume are recorded. The measurement of tumor size is conducted twice weekly with a caliper and recorded. The tumor volume (mm^3) is estimated using the formula: TV=a×b^2/2, where “a” and “b” are long and short diameters of a tumor, respectively.

[8] = system: OCI-AML-3 xenograft (NRAS Q61L); assay: In vivo efficacy, OCI-AML-3 xenograft model; design: species or system mouse; settings: OCI-AML-3 model, 100 mg/kg QD, Day 15
Protocol: as §1

[9] = AsPC-1, HPAF, MiaPACA2, NCI-H1373, NCI-H2122, PANC03276

| SMILES | IC50 [1] | AUC(0-inf) [2] | AUC(0-t) [2] | Cmax [2] | Tmax [2] | half-life [2] | KD Ratio (mean), compound to DMSO ([3]; compound 0.01 μM) | KD Ratio (mean), compound to DMSO ([3]; compound 0.1 μM) | KD Ratio (mean), compound to DMSO ([3]; compound 1 μM) | IC50 [4] | Loewe Synergy Score > 10 [6, 9] | further results |
| --- | --- | --- | --- | --- | --- | --- | --- | --- | --- | --- | --- | --- |
| CNS(=O)(=O)Nc1cccc(Oc2c(C(=O)NC3CC3)c(Nc3ccc(I)cc3F)n(C)c(=O)c2C)c1OC(F)(F)F [Compound I-40] | < 100 nM | 2940 ng·h/mL | 2750 ng·h/mL | 783 ng/mL | 0.8 h | 1.82 h | 0.87 | 0.62 | 0.47 | – | – | – |
| Cc1c(Oc2cccc(NS(=O)(=O)NC3CC3)c2Cl)c(C(=O)NC2CC2)c(Nc2ccc(I)cc2F)n(C)c1=O [Compound I-42] | < 100 nM | 511 ng·h/mL | 506 ng·h/mL | 418 ng/mL | 0.4 h | 1.11 h | 0.78 | 0.57 | 0.57 | < 100 nM | – | AUC(0-inf) [5]: 217 ng·h/mL; AUC(0-t) [5]: 205 ng·h/mL; clearance [5]: 76.8 mL/min/kg; half-life [5]: 2.09 h; Vd [5]: 9.9 L/kg |
| CCNS(=O)(=O)Nc1cccc(Oc2c(C(=O)NC3CC3)c(Nc3ccc(I)cc3F)n(C)c(=O)c2C)c1Cl [Compound I-43] | < 100 nM | 803 ng·h/mL | 763 ng·h/mL | 488 ng/mL | 0.3 h | 3.92 h | 0.69 | 0.52 | 0.51 | < 100 nM | – | – |
| CNS(=O)(=O)Nc1cccc(Oc2c(C(=O)NCC(F)(F)F)c(Nc3ccc(I)cc3F)n(C)c(=O)c2C)c1Cl [Compound I-45] | < 100 nM | – | – | – | – | – | 0.62 | 0.42 | 0.38 | < 100 nM | – | – |
| Cc1c(Oc2cccc(NS(=O)(=O)NCC(F)(F)F)c2Cl)c(C(=O)NC2CC2)c(Nc2ccc(I)cc2F)n(C)c1=O [Compound I-46] | < 100 nM | 3800 ng·h/mL | 3770 ng·h/mL | 1430 ng/mL | 0.6 h | 2.8 h | – | – | – | < 100 nM | – | AUC(0-inf) [5]: 1590 ng·h/mL; AUC(0-t) [5]: 1550 ng·h/mL; clearance [5]: 10.5 mL/min/kg; half-life [5]: 1.86 h; Vd [5]: 1 L/kg |
| COCCNS(=O)(=O)Nc1cccc(Oc2c(C(=O)NC3CC3)c(Nc3ccc(I)cc3F)n(C)c(=O)c2C)c1Cl [Compound I-55] | < 100 nM | 1090 ng·h/mL | 1090 ng·h/mL | 801 ng/mL | 0.4 h | 1.58 h | 0.76 | 0.58 | 0.51 | < 100 nM | – | – |
| CO[C@H]1C[C@@H]2CC[C@@H](C)[C@@](O)(O2)C(=O)C(=O)N2CCCC[C@H]2C(=O)O[C@H]([C@H](C)C[C@@H]2CC[C@@H](OCCO)[C@H](OC)C2)CC(=O)[C@H](C)/C=C(\C)[C@@H](O)[C@@H](OC)C(=O)[C@H](C)C[C@H](C)/C=C/C=C/C=C/1C [Everolimus] | – | – | – | – | – | – | – | – | – | – | 5/6 cell lines | – |
| C[C@H](Nc1ccc2c(c1)OCCn1cc(N3C(=O)OC[C@H]3C(F)F)nc1-2)C(N)=O [Inavolisib] | – | – | – | – | – | – | – | – | – | – | 5/6 cell lines | – |
| Cc1ccc(NC(=O)c2ccnc(C(F)(F)F)c2)cc1-c1cc(OCCO)nc(N2CCOCC2)c1 [LXH254] | – | – | – | – | – | – | – | – | – | – | 6/6 cell lines | – |
| O=C1CCc2c(Oc3ccc4c(c3)[C@@H]3[C@H](O4)[C@H]3c3nc4ccc(C(F)(F)F)cc4[nH]3)ccnc2N1 [Lifirafenib] | – | – | – | – | – | – | – | – | – | – | – | Loewe Synergy Score > 10 ([6]; NCI-H358, NCI-H1373, NCI-H2122): 3/3 cell lines |
| Cc1nc(N2CCC3(CC2)CO[C@@H](C)[C@H]3N)c(CO)nc1-c1cccc(Cl)c1Cl [RMC-4550] | – | – | – | – | – | – | – | – | – | – | 3/6 cell lines | – |
| CC1(C)CCC(CN2CCN(c3ccc(C(=O)NS(=O)(=O)c4ccc(NCC5CCOCC5)c([N+](=O)[O-])c4)c(Oc4cnc5[nH]ccc5c4)c3)CC2)=C(c2ccc(Cl)cc2)C1 [venetoclax, reference compound] | – | – | – | – | – | – | – | – | – | – | – | percent TGI [7]: 46.6%; weight gain [7]: 7.5%; percent TGI [8]: 13%; weight gain [8]: 8.3% |
